Results: PMC2810717 (Biochemistry, 2010)

Assays:
[1] = target: T1, spermine oxidase (SMO) (Homo sapiens, UniProt Q9NWM0); assay: biochemical
[2] = target: T1, spermine oxidase (SMO); format: biochemical

T1 sequence (Q9NWM0 whole entry): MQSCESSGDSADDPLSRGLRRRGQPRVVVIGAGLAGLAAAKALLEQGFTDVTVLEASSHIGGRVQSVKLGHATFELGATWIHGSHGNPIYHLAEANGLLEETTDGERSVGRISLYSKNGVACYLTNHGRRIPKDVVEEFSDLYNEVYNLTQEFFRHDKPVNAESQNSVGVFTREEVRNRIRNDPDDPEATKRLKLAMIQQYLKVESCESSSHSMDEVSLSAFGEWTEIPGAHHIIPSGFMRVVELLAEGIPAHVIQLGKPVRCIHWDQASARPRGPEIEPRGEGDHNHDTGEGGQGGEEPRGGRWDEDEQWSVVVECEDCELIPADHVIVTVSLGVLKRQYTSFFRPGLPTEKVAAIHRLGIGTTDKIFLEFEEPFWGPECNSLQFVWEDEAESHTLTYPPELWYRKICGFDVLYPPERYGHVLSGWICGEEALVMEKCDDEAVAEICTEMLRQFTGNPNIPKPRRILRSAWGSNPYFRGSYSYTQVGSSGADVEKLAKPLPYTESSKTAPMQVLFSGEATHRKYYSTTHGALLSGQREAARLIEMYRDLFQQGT

Structure (SMILES) | Kd [1] [µM] | Ki [2] [µM]
NCCCNCCCCNCCCN [spermine] | 48 ± 8.2 | –
NCCCCNCCCN [spermidine] | – | 550 ± 20
c1ccc(CNCCCCNCc2ccccc2)cc1 [DBDB, N,N’-dibenzylbutane-1,4-diamine] | – | 320 ± 80
